One data set deals with HEK293T cells. In words: MTT cytotoxicity assay in HEK293 cells. The format is cell-based, human. The method, then: (§1) To measure the cytotoxicity of octopromycin on HEK293T (American Type Culture Collection ATCC-11268) and Raw 264.7 cells, the cells were treated with octopromycin and cell viability was evaluated. The cells were harvested, counted and seeded at a density of […] per well in a 96-well plate and cultured for 24 hours at 37° C. and 5% CO2. The cells were treated with different concentrations of octopromycin (0 to 800 μg/mL) and cultured for 24 hours. After culturing, the culture medium was replaced with a fresh medium, and 10 μL of MTT (5 mg/mL) was added to each well and incubated in a CO2 incubator for 4 hours. The formed formazan crystals were dissolved in 50 μL of DMSO and absorbance was measured at 570 nm using a microplate reader (Bio-Rad Laboratories, Inc, USA). Cells treated with the medium (control) were considered as 100% viability (control group), and current viability was normalized and calculated for the untreated control group.

A short description of data set [1]: MTT cytotoxicity assay in HEK293 cells. The format is cell-based, human. The following applies: HEK293T cells. The method, then: as §1
Data set [2] concerns A. baumannii. The data set is described as follows: Time-kill kinetics (OD 595 nm). Type of data set: cell-based, Acinetobacter baumannii. On the procedure:
The MIC and MBC levels of octopromycin in A. baumannii were determined using media dilution tests and subcultures, respectively, according to the guidelines of the Clinical and Laboratory Standards Institute (CLSI, 2008 M27-A3). Several concentrations of octopromycin (0, 5, 10, 25, 50, 100, and 200 μg/mL) were tested as standard antibiotics (positive control) together with chloramphenicol (10 μg/mL, Sigma-Aldrich, USA) acting on A. baumannii growth and the MBC of chloramphenicol was confirmed according to the same procedure. The MIC was determined as the minimum concentration required to inhibit visual growth of A. baumannii. […] For analysis of time-kill kinetics, A. baumannii was cultured with octopromycin at various concentrations (0, 25, 50, 100, and 200 μg/mL) in the TSA medium at 25° C., and at different time intervals (0, 3, 6, 9, 12, 18, and 21 h), the absorbance was measured at 595 nm using a microplate reader (Bio-Rad, Saint Louis, USA) to confirm an inhibitory effect after culturing.

Data set [3] has as its system A. baumannii. In words: A. baumannii-infected zebrafish model (viability, CFU, clinical signs). Type of data set: in vivo. The method, then: The effect of octopromycin as an antibacterial agent was confirmed using zebrafish as an animal model.
A total of 72 zebrafish (average weight: 0.35±0.05 g) were divided into 3 groups: (1) non-infected control group treated with PBS and water, (2) A. baumannii-infected group, and (3) A. baumannii-infected and octopromycin-treated group (octopromycin-treated group).
Zebrafish was anesthetized using system water containing 160 μg/mL of tricaine (ethyl 3-aminobenzoate methane sulfonate). The control group ((1) group) was injected with 10 μL of nucleous free water (NFW) and 20 μL of PBS using a Hamilton® syringe. The A. baumannii-infected group ((2) group) was injected intraperitoneally with 10 μL of NFW, and the octopromycin-treated group ((3) group) was injected intraperitoneally with 10 μL of octopromycin (10 μg/fish). Then, A. baumannii was injected intraperitoneally (0 hpi) in the A. baumannii-infected group and the octopromycin-treated group at a dose of 20 μ1 (3.4×10^11 CFU) per fish, and then injected every 2 hpi until 48 hpi. To confirm the antibacterial effect of octopromycin, fish mortality was recorded every 12 hpi and the viability of each group was examined.
In addition, the number of bacteria (CFU) in the kidneys and spleens of the control group and the infected zebrafish was observed. 3 fish from each group at the 80% mortality stage of the A. baumannii-infected group was selected, and then the spleen and the kidney were collected, and individual spleen and kidney tissues from each zebrafish were homogenized in PBS and the homogenates were serially diluted and loaded onto an agar plate (TSA) to measure A. baumannii CFU.

A further data set relates to A. baumannii biofilm. In words: Eradication of already formed biofilm (crystal violet staining). Type of data set: cell-based, Acinetobacter baumannii. The following applies: 24 hours after treatment. On the procedure:
Next, the effect of octopromycin on biofilm eradication in A. baumannii was confirmed. To measure the eradication effect of the already formed biofilm, 100 μL of A. baumannii (5×10^5 CFU/mL) was cultured in TSB for 24 hours. The culture medium was removed and the wells were carefully washed with PBS to eradicate planktonic bacteria. The wells were added with octopromycin (50 μg/mL (MIC) and 200 μg/mL (MBC)) and further cultured for 24 hours. The biofilm was stained with crystal violet for 30 minutes, washed three times with PBS, and dissolved in 95% ethanol, and the absorbance was measured at 495 nm using a microplate reader (Bio-Rad, USA).

The subject of data set [4] is A. baumannii. The format is cell-based. The following applies: Acinetobacter baumannii, 24 h, 200 μg/mL. On the procedure:
A. baumannii was cultured in TSB (OD-0.25, 2.5 x 10^6 CFU/mL) and treated with octopromycin at various concentrations (0, 25, 50, 75, 100, 150, and 200 μg/mL). After culturing for 24 hours in a shaking incubator at 180 rpm at 25° C., A. baumannii was centrifuged at 3500 rpm for 10 minutes, and the cells were washed with PBS. For cell viability assay, A. baumannii cells reacted with 20 μL of an MTT reagent (Sigma Aldrich, USA) for 30 minutes, and the samples were resuspended in dimethylsulfoxide (Sigma Aldrich, USA). The cell viability was measured based on OD at 570 nm using a microplate reader (Bio-Rad, Saint Louis, USA).

The subject of data set [5] is A. baumannii. In words: Propidium iodide (PI) uptake / FDA staining membrane permeability assay (CLSM). The format is cell-based, Acinetobacter baumannii. On the procedure: Propidium iodide (PI) uptake assay was performed to evaluate an effect of octopromycin on association with the membrane permeability and apoptosis of A. baumannii. The PI was a red fluorescent nuclear and chromosome counter dye that indicated changes in cell membrane permeability, and was used to detect the presence of dead cells and simultaneously observe live cells by observing green fluorescence (FDA). A. baumannii treated with octopromycin at MIC; 50 μg/mL and MBC; 200 μg/mL levels and control cell suspensions were centrifuged (5000 rpm for 2 minutes), washed with PBS and the pellets were suspended in PBS. Subsequently, the cells were cultured with 20 μg/mL of PI (Sigma Aldrich, USA) and 8 μg/mL of FDA (Sigma Aldrich, USA) at 25° C. for 30 minutes in the dark, and finally, the remaining dye was washed with PBS. Finally, a 5 μL drop of each suspension was placed on a cover slip and fluorescence images were observed using a CLSM integrated with a scan head on an Axiovert 200M inverted microscope (Carl Zeiss, Germany).

Where no end group is shown, it is not given here.

For “RRLIRTDTGPIIYDYFKDQLLKKGMVILRESMKNLKGM [octopromycin]”, the cell viability result with HEK293T cells (HEK293, >400 μg/mL) was “significantly reduced”. Also, the toxic effect result with HEK293T cells (HEK293, MBC level (200 μg/mL)) is on record as “no toxic effect”. In data set [1] (human embryonic kidney 293T, concentration not given, read-out: cells alive), the viability at 24 h is not below 85%. Besides, in data set [1] (human, HEK293, 400 μg/mL, 24 hours, read-out: cell viability), the viability at 24 h, 400 µg/mL came out at 85%. The “growth inhibition (time-kill kinetics)” value was “partial growth inhibition” in the data set on A. baumannii [2] (25 μg/mL, up to 12 hours) and “clear growth inhibition” in the data set with A. baumannii [2] (at a MIC concentration or less, 25° C., OD 595 nm). In addition, in the data set with A. baumannii [3] (10 μg/fish intraperitoneally, 48 hours after A. baumannii infection), the “viability of infected zebrafish” value is given as 37.5%. Also, the “number of bacteria (CFU) in spleen and kidney” value in the data set on A. baumannii [3] (10 μg/fish, rank among the three groups) is reported as “second highest”. Further, in the data set with A. baumannii [3] (10 μg/fish, vs A. baumannii-infected group), the “external clinical signs (hemorrhage)” value was “less hemorrhage”. In addition, the “reduction in biofilm (eradication)” value is given as 64.2% in the data set with A. baumannii biofilm (MBC (200 μg/mL)) and 64.0% with A. baumannii biofilm (MIC (50 μg/mL)). Further, the “cell viability of A. baumannii” value in the data set on A. baumannii [4] is reported as 1.54%. Further, the “membrane permeability (PI/FDA staining)” value with A. baumannii [5] (MBC (200 μg/mL)) was “almost all A. baumannii cells showed red fluorescence signals”; with A. baumannii [5] (MIC (50 μg/mL)) it was “more PI-stained red fluorescent cells”.

These data come from patent US20230321187A1, “OCTOPUS-DERIVED PEPTIDE OCTOPROMYCIN HAVING ANTIBACTERIAL AND ANTI-BIOFILM ACTIVITY AGAINST ACINETOBACTER BAUMANNII” (priority 2020, published 2023).
